According to PubChem BioAssay (NCI):
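1) Cells in 96-well plates. 2) Compound, 48 h, 5 concentrations. 3) Linear interpolation between surrounding doses. 4) Unreached endpoint = highest concentration. At the GI50, growth is halved. TGI: concentration producing complete growth inhibition.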

What was measured:
Assay in all cases: DTP human tumour cell line panel, 48 h
786-0 renal = test system: 786-0 renal
A549 NSCLC = test system: A549 NSCLC
ACHN renal = test system: ACHN renal
BT-549 breast = test system: BT-549 breast
CAKI-1 renal = test system: CAKI-1 renal
COLO 205 colon = test system: COLO 205 colon
DU-145 prostate = test system: DU-145 prostate
EKVX NSCLC = test system: EKVX NSCLC
HCC-2998 colon = test system: HCC-2998 colon
HCT-116 colon = test system: HCT-116 colon
HCT-15 colon = test system: HCT-15 colon
HL-60(TB) leukemia = test system: HL-60(TB) leukemia
HOP-62 NSCLC = test system: HOP-62 NSCLC
HS 578T breast = test system: HS 578T breast
IGROV1 ovarian = test system: IGROV1 ovarian
K-562 leukemia = test system: K-562 leukemia
KM12 colon = test system: KM12 colon
LOX IMVI melanoma = test system: LOX IMVI melanoma
M14 melanoma = test system: M14 melanoma
MDA-MB-231 breast = test system: MDA-MB-231 breast
MDA-MB-435 = test system: MDA-MB-435
NCI-H460 lung = test system: NCI-H460 lung
NCI-H522 lung = test system: NCI-H522 lung
NCI/ADR-RES ovarian = test system: NCI/ADR-RES ovarian
OVCAR-3 ovarian = test system: OVCAR-3 ovarian
OVCAR-4 ovarian = test system: OVCAR-4 ovarian
OVCAR-5 ovarian = test system: OVCAR-5 ovarian
OVCAR-8 ovarian = test system: OVCAR-8 ovarian
PC-3 prostate = test system: PC-3 prostate
RPMI-8226 leukemia = test system: RPMI-8226 leukemia
RXF 393 renal = test system: RXF 393 renal
SF-295 CNS = test system: SF-295 CNS
SK-MEL-2 melanoma = test system: SK-MEL-2 melanoma
SK-MEL-28 melanoma = test system: SK-MEL-28 melanoma
SK-MEL-5 melanoma = test system: SK-MEL-5 melanoma
SK-OV-3 ovarian = test system: SK-OV-3 ovarian
SN12C renal = test system: SN12C renal
SNB-19 CNS = test system: SNB-19 CNS
SNB-75 CNS = test system: SNB-75 CNS
SW-620 colon = test system: SW-620 colon
TK-10 renal = test system: TK-10 renal
U251 CNS = test system: U251 CNS
UACC-62 melanoma = test system: UACC-62 melanoma
UO-31 renal = test system: UO-31 renal

COc1cc2c(c(OC)c1OC)-c1ncc3cc4c(cc3c1C2)OCO4
GI50 (786-0 renal): 30.2 µM
TGI (786-0 renal): > 100 µM
GI50 (A549 NSCLC): 21.1 µM
TGI (A549 NSCLC): 97.9 µM
GI50 (ACHN renal): 28.8 µM
TGI (ACHN renal): 73.6 µM
GI50 (BT-549 breast): 3.76 µM
TGI (BT-549 breast): 20.1 µM
GI50 (CAKI-1 renal): 18 µM
TGI (CAKI-1 renal): 71.7 µM
GI50 (COLO 205 colon): 29.7 µM
TGI (COLO 205 colon): > 100 µM
GI50 (DU-145 prostate): 23.2 µM
TGI (DU-145 prostate): > 100 µM
GI50 (EKVX NSCLC): 15.6 µM
TGI (EKVX NSCLC): 51.7 µM
GI50 (HCC-2998 colon): 17.4 µM
TGI (HCC-2998 colon): 48.1 µM
GI50 (HCT-116 colon): 18.8 µM
TGI (HCT-116 colon): 48.3 µM
GI50 (HCT-15 colon): 10.8 µM
TGI (HCT-15 colon): > 100 µM
GI50 (HL-60(TB) leukemia): 26.3 µM
TGI (HL-60(TB) leukemia): > 100 µM
GI50 (HOP-62 NSCLC): 21.7 µM
TGI (HOP-62 NSCLC): 46.6 µM
GI50 (HS 578T breast): 14.7 µM
TGI (HS 578T breast): 49.6 µM
GI50 (IGROV1 ovarian): 12.8 µM
TGI (IGROV1 ovarian): > 100 µM
GI50 (K-562 leukemia): 2.27 µM
TGI (K-562 leukemia): > 100 µM
GI50 (KM12 colon): 18.6 µM
TGI (KM12 colon): 80.1 µM
GI50 (LOX IMVI melanoma): 14.3 µM
TGI (LOX IMVI melanoma): 34.1 µM
GI50 (M14 melanoma): 45.5 µM
TGI (M14 melanoma): > 100 µM
GI50 (MDA-MB-231 breast): 13.8 µM
TGI (MDA-MB-231 breast): 88.8 µM
GI50 (MDA-MB-435): 13.2 µM
TGI (MDA-MB-435): 32.6 µM
GI50 (NCI-H460 lung): 15.5 µM
TGI (NCI-H460 lung): 38.2 µM
GI50 (NCI-H522 lung): 18.9 µM
TGI (NCI-H522 lung): 45.9 µM
GI50 (NCI/ADR-RES ovarian): 32.1 µM
TGI (NCI/ADR-RES ovarian): > 100 µM
GI50 (OVCAR-3 ovarian): 15.5 µM
TGI (OVCAR-3 ovarian): 38.1 µM
GI50 (OVCAR-4 ovarian): 46.3 µM
TGI (OVCAR-4 ovarian): > 100 µM
GI50 (OVCAR-5 ovarian): > 100 µM
TGI (OVCAR-5 ovarian): > 100 µM
GI50 (OVCAR-8 ovarian): 13.9 µM
TGI (OVCAR-8 ovarian): 36.9 µM
GI50 (PC-3 prostate): 34.7 µM
TGI (PC-3 prostate): > 100 µM
GI50 (RPMI-8226 leukemia): 17.8 µM
TGI (RPMI-8226 leukemia): > 100 µM
GI50 (RXF 393 renal): 24.2 µM
TGI (RXF 393 renal): 83.8 µM
GI50 (SF-295 CNS): 15.6 µM
TGI (SF-295 CNS): 39.8 µM
GI50 (SK-MEL-2 melanoma): 38.9 µM
TGI (SK-MEL-2 melanoma): > 100 µM
GI50 (SK-MEL-28 melanoma): 54.6 µM
TGI (SK-MEL-28 melanoma): > 100 µM
GI50 (SK-MEL-5 melanoma): 17.4 µM
TGI (SK-MEL-5 melanoma): 36.5 µM
GI50 (SK-OV-3 ovarian): 21.9 µM
TGI (SK-OV-3 ovarian): 46.5 µM
GI50 (SN12C renal): 13.4 µM
TGI (SN12C renal): 40.8 µM
GI50 (SNB-19 CNS): > 100 µM
TGI (SNB-19 CNS): > 100 µM
GI50 (SNB-75 CNS): 79.4 µM
TGI (SNB-75 CNS): > 100 µM
GI50 (SW-620 colon): 18.6 µM
TGI (SW-620 colon): 60.5 µM
GI50 (TK-10 renal): 26.2 µM
TGI (TK-10 renal): 67.3 µM
GI50 (U251 CNS): 21.6 µM
TGI (U251 CNS): 54.2 µM
GI50 (UACC-62 melanoma): 19.3 µM
TGI (UACC-62 melanoma): > 100 µM
GI50 (UO-31 renal): 12.5 µM
TGI (UO-31 renal): 74.6 µM
